Source: patent publication US20160106102A1, “KNOWN AND NEW HETEROCYCLIC COMPOUNDS AS PEST CONTROL AGENTS” (BAYER CROPSCIENCE AKTIENGESELLSCHAFT, priority 2013, published 2016)
Like-named read-outs stand apart in the source and are kept apart here.

Tests used:
Myzus persicae = Myzus persicae - sachet test; type: in vivo; details: 100% = all animals killed; for pest or weed control at 6 ppm / pest or weed control at 30 ppm: Myzus persicae, read-out: efficacy (kill in %)
Procedure, shortened: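 Green peach aphids feed through a sealed sachet on nutrient medium containing the water-diluted formulation (solvents: 2% N-methylpyrrolidone, 2% diacetone alcohol). Percent mortality read after the chosen time; 100% means all animals killed.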

[1] = log P determination by LC-MS in the acidic range; type: physicochemical; details: for chromatographic logP: reversed-phase HPLC column (C18)
From the text: The LC-MS determination in the acidic range is effected at pH 2.7 using 0.1% aqueous formic acid and acetonitrile (contains 0.1% formic acid) as eluents, linear gradient from 10% acetonitrile to 95% acetonitrile. Alternatively, the determination is effected in the acidic range at pH 2.3 using 0.1% aqueous phosphoric acid and acetonitrile as eluents; linear gradient from 10% acetonitrile to 95% acetonitrile.

[2] = application rate of 30 ppm in nutrient medium
[3] = application rate of 6 ppm in nutrient medium
[4] = Table 2, compounds of the formula (I-2), acidic range pH 2.7 or pH 2.3
[5] = pH 2.7, Table 3, HPLC on reversed-phase column (C 18), 55° C., acidic range (pH 2.7 or pH 2.3), read-out: log P (acid)
[6] = pH 2.7, values given in the synthesis examples and NMR lists, read-out: HPLC-MS: log P
[7] = Table 3, HPLC on reversed-phase column (C 18), 55° C., acidic range (pH 2.7 or pH 2.3)
[8] = Table 4, HPLC on reversed-phase column (C 18), 55° C., acidic range (pH 2.7 or pH 2.3)

Row | Compound | efficacy (kill in %) (Myzus persicae; [2]) | log P (acid) ([1]; LC-MS in the acidic range) | efficacy (kill in %) (Myzus persicae; [3]) | further results
1 | Cc1cc(NC(=O)c2cccnc2)nn1CC(F)(F)c1ccc(F)cn1 [Compound I-1-294] | 100% | 1.77 | – | –
2 | Cc1cc(NC(=O)c2cccnc2)nn1Cc1nnc(-c2ccccc2)o1 [Compound I-1-299] | 100% | 1.57 | 100% | –
3 | Cc1cc(NC(=O)c2cccnc2)nn1Cc1nc(-c2ccccc2)no1 [Compound I-1-300] | 100% | 2.01 | 100% | –
4 | Cc1cc(NC(=O)c2cccnc2)nn1Cc1ccc(Cl)c(Cl)n1 [Compound I-1-301] | 100% | 2.06 | – | –
5 | Cc1cc(NC(=O)c2cccnc2)nn1Cc1csc(C(F)(F)F)n1 [Compound I-1-302] | 100% | 1.93 | 100% | –
6 | Cc1cc(N(Cc2nc(-c3ccccc3)no2)C(=O)c2cccnc2)nn1Cc1nc(-c2ccccc2)no1 [Compound I-1-305] | 100% | 3.26 | – | –
7 | Cc1cc(NC(=O)c2cccnc2)nn1C=C(F)c1ccc(Cl)cn1 [Compound I-1-306] | 100% | 2.31 | – | –
8 | Cc1cc(NC(=O)c2cccnc2)nn1C(=O)NC(C)C(F)(F)F (stereo not shown) [Compound I-1-307] | 100% | 1.89 | 100% | –
9 | Cc1cc(NC(=O)c2cccnc2)nn1C(=O)NCCS(C)(=O)=O [Compound I-1-309] | 100% | 0.97 | 100% | –
10 | CCCCNC(=O)n1nc(NC(=O)c2cccnc2)cc1C [Compound I-1-315] | 100% | 1.92 | 100% | –
11 | Cc1cc(NC(=O)c2cccnc2)nn1C(=O)NCC1CC1 [Compound I-1-316] | 100% | 1.65 | 100% | –
12 | Cc1cc(NC(=O)c2cccnc2)nn1C(=O)NC(C)(C)C [Compound I-1-319] | 100% | 1.99 | 100% | –
13 | Cc1cc(NC(=O)c2cccnc2)nn1C(=O)NCc1ccccc1 [Compound I-1-322] | 100% | 1.97 | 100% | –
14 | Cc1cc(NC(=O)c2cccnc2)nn1C(=O)NCc1ccccc1Cl [Compound I-1-323] | 100% | 2.29 | 100% | –
15 | Cc1cc(NC(=O)c2cccnc2)nn1C(=O)NCc1cccc(Cl)c1 [Compound I-1-324] | 100% | 2.39 | 100% | –
16 | Cc1cc(NC(=O)c2cccnc2)nn1C(=O)NCc1ccc(Cl)cc1 [Compound I-1-325] | 100% | 2.34 | 100% | –
17 | Cc1cc(NC(=O)c2cccnc2)nn1C(=O)NCc1ccccc1F [Compound I-1-326] | 100% | 2.04 | 100% | –
18 | Cc1cc(NC(=O)c2cccnc2)nn1C(=O)NCc1cccc(F)c1 [Compound I-1-327] | 100% | 2.1 | 100% | –
19 | Cc1cc(NC(=O)c2cccnc2)nn1C(=O)NCc1ccc(F)cc1 [Compound I-1-328] | 100% | 2.12 | 100% | –
20 | Cc1cc(NC(=O)c2cccnc2)nn1C(=O)NC(C)c1ccccc1 (stereo not shown) [Compound I-1-331] | 100% | 2.22 | 100% | –
21 | Cc1cc(NC(=O)c2cccnc2)nn1C(=O)NC(C)c1ccc(F)cc1 (stereo not shown) [Compound I-1-332] | 100% | 2.28 | 100% | –
22 | Cc1cc(NC(=O)c2cccnc2)nn1C(=O)NCc1ncccn1 [Compound I-1-334] | 100% | 0.95 | 100% | –
23 | Cc1cc(NC(=O)c2cccnc2)nn1C(=O)NCc1ccncn1 [Compound I-1-336] | 100% | 1.05 | 100% | –
24 | Cc1cc(NC(=O)c2cccnc2)nn1Cc1ccc2nsnc2c1 [Compound I-1-339] | 100% | 1.61 | – | –
25 | Cc1cc(NC(=O)c2cccnc2)nn1Cc1nc2cc(Cl)ccc2o1 [Compound I-1-340] | 100% | 2 | 100% | –
26 | Cc1cc(NC(=O)c2cccnc2)nn1Cc1ccc2ccccc2n1 [Compound I-1-341] | 100% | 1.66 | 100% | –

Row | Compound | efficacy (kill in %) (Myzus persicae; [2]) | log P (acid) ([1]; LC-MS in the acidic range) | efficacy (kill in %) (Myzus persicae; [3]) | further results
27 | Cc1cc(NC(=O)c2cccnc2)nn1C(C)(C)C [Compound I-1-347] | 100% | 1.61 | 80% | –
28 | Cc1cc(NC(=O)c2cncc(F)c2)nn1C(C)(C)C [Compound I-1-348] | 80% | 2.13 | – | –
29 | Cc1cc(NC(=O)c2cccnc2)nn1-c1ccccc1 [Compound I-1-349] | 100% | 1.7 | – | –
30 | Cc1cc(NC(=O)c2cncc(F)c2)nn1-c1ccccc1 [Compound I-1-350] | 80% | 2.18 | – | –
31 | Cc1cc(NC(=O)c2cccnc2)nn1Cc1cn2nc(Cl)ccc2n1 [Compound I-1-351] | 100% | 1.42 | – | –
32 | Cc1ccc2oc(Cn3nc(NC(=O)c4cccnc4)cc3C)nc2c1 [Compound I-1-353] | 100% | 1.9 | 100% | –
33 | Cc1nc(NC(=O)c2cccnc2)n[nH]1 [Compound I-2-1] | 100% | – | – | log P (acid) [1, 4]: <−0.23
34 | CCc1nc(NC(=O)c2cccnc2)nn1-c1ccccc1 [Compound I-2-6] | 100% | – | – | log P (acid) [1, 4]: 1.24
35 | Cn1cnc(NC(=O)c2cccnc2)n1 [Compound I-2-14] | 100% | – | – | log P (acid) [1, 4]: <−0.23
36 | CCc1nc(NC(=O)c2cccnc2)nn1C [Compound I-2-17] | 100% | – | – | log P (acid) [1, 4]: 0.01
37 | COCn1cnc(NC(=O)c2cccnc2)n1 [Compound I-2-18] | 80% | – | – | log P (acid) [1, 4]: −0.23
38 | O=C(Nc1ncn(Cc2cccc(Cl)c2)n1)c1cccnc1 [Compound I-2-19] | 100% | – | – | log P (acid) [1, 4]: 1.33
39 | Cc1cc(C)nc(-n2cnc(NC(=O)c3cccnc3)n2)n1 [Compound I-2-22] | 80% | – | – | log P (acid) [1, 4]: 0.86
40 | Cc1ccccc1Cn1cnc(NC(=O)c2cccnc2)n1 [Compound I-2-23] | 100% | – | – | log P (acid) [1, 4]: 1.23
41 | CSc1nc(NC(=O)c2cccnc2)nn1C [Compound I-2-26] | 100% | – | – | log P (acid) [1, 4]: 0.32
42 | Cc1nn(-c2ccccn2)nc1NC(=O)c1cccnc1 [Compound I-3-1, N-[5-Methyl-2-(pyridin-2-yl)-2H-1,2,3-triazol-4-yl]nicotinamide] | – | – | – | pest or weed control at 6 ppm (Myzus persicae; [3]): 100%; pest or weed control at 30 ppm (Myzus persicae; [2]): 100%; chromatographic logP [1, 5]: 1.08; chromatographic logP [1, 6]: 1.08
43 | Cn1ncc(NC(=O)c2cccnc2)n1 [Compound I-3-2] | 100% | – | – | log P (acid) [1, 7]: 0.38
44 | O=C(Nc1cnn(-c2ncc(C(F)(F)F)cc2Cl)n1)c1cccnc1 [Compound I-3-5] | 100% | – | – | log P (acid) [1, 7]: 2.12
45 | O=C(Nc1nn(-c2ncccc2Cl)nc1C(F)(F)F)c1cccnc1 [Compound I-3-6] | 100% | – | – | log P (acid) [1, 7]: 1.89
46 | O=C(Nc1cnn(-c2ncccc2Br)n1)c1cccnc1 [Compound I-3-7] | 100% | – | 80% | log P (acid) [1, 7]: 1.33
47 | Cc1nn(-c2ncccc2Cl)nc1NC(=O)c1cccnc1 [Compound I-3-9] | 100% | – | – | log P (acid) [1, 7]: 1.24
48 | CC(C)n1ncc(NC(=O)c2cccnc2)n1 [Compound I-3-10] | 100% | – | – | log P (acid) [1, 7]: 1.09
49 | O=C(Nc1cnn(-c2ccc(C(F)(F)F)cn2)n1)c1cccnc1 [Compound I-3-14, N-{2-[5-(Trifluoromethyl)pyridin-2-yl]-2H-1,2,3-triazol-4-yl}nicotinamide] | – | – | – | pest or weed control at 6 ppm (Myzus persicae; [3]): 100%; pest or weed control at 30 ppm (Myzus persicae; [2]): 100%; chromatographic logP [1, 5]: 1.91; chromatographic logP [1, 6]: 1.91
50 | O=C(Nc1cnn(-c2ncccc2Cl)n1)c1cccnc1 [Compound I-3-16] | 100% | – | – | log P (acid) [1, 7]: 1.32
51 | Cn1nnc(NC(=O)c2cccnc2)n1 [Compound I-4-2] | 100% | – | – | log P (acid) [1, 8]: <−0.23
52 | O=C(Nc1nnn(Cc2ccc(Cl)nc2)n1)c1cccnc1 [Compound I-4-3] | 100% | – | 100% | log P (acid) [1, 8]: 1.05
